The text below walks through data of patent US8258098B2, “Antitumoral treatments” (Pharma Mar, S.A., priority 2006, dated 2012).

Test [1] relates to RL human lymphoma cells. In words: Antitumor efficacy against subcutaneous-implanted lymphoma xenograft. The note with it: median tumor weight, Aplidine 60 μg/kg/dose IP q1d × 9 day 15, 28, Rituximab 20 mg/kg/dose IP q3d × 2 day 15, 22, 29, 36. In kind it is in vivo. The source says:
The purpose of this study was to evaluate the antitumor efficacy of Aplidine when administered in combination with rituximab against subcutaneous-implanted RL human lymphoma cells in […], SCID mice.
The animals were housed in microisolator cages, up to five per cage in a 12-hour light/dark cycle. Six-weeks-old male, SCID mice were acclimated in the laboratories for one week prior to the experiment.
Each mouse was inoculated s.c. near the right flank with RL human lymphoma cells from an in vitro cell culture using a 23-gauge needle. Each mouse received 1.0×10^7 cells resuspended in 0.2 mL of Matrigel®. […] The cell count was determined with a Coulter Model Z1 cell counter and viability was measured following propidium iodide staining and analyzed using a Beckman Coulter EPICS XL flow cytometer. […]
Animals were observed daily and clinical signed were noted. The s.c. tumors were measured and the animals were weighed twice weekly starting with the first day of treatment, Day 15. Tumor volume was determined by caliper measurements (mm) and using the formula for an ellipsoid sphere as described in Example 7.

The test system of test [2] is HL-60 cells. Briefly: MTS assay Example 2, single agents and combinations. The class given is cell-based. The note with it: Homo sapiens; HL-60, MTS; read-out: IC50 (Molar). The procedure: (§1) The day before plating cells all cultures were fed with fresh, complete growth media. On the harvest (plating) day cells were counted by Trypan Blue exclusion staining method.
(§2) Cells were harvested and seeded in 96 well microtiter plates at 15,000 cells per well in 190 μl of media and incubated for 24 hours to allow the cells to attach before drug addition.
(§3) The cytotoxic effect was measured by the MTS Assay (Tetrazolium), which is a colorimetric method for determining the number of viable cells.
(§4) After 72 hours of incubation with tested agents 25 μl of MTS+PMS solution was added to each microtiter well and incubated for 4 hours at 37° C. Plates were then removed from incubator and placed on plate shaker for 5 minutes (covered with aluminum foil for protection from light). Optical densities were read at 490 nm on spectrophotometer plate reader. Data was analyzed as: • 1. Prism (Graphpad) software program was used to normalized the data to control values (100%=cell growth in the absence of agent (drug); 0%=blank control). • 2. Data normalized were plotted as scatter plots.
(§5) Conversely, antagonism was concluded when inhibition was lower than both maxima. […] Statistical significance was assessed by performing a student's t-test on the inhibition at each dose ratio versus the inhibition at the maximum for each drug.
(§6) As a visual aid, response values were plotted on a scatter plot with dose ratios given on the x-axis and % response values on the y-axis. […] In cases where response values at the two endpoints were approximately equivalent, points lying above or below this predicted line of additivity could be interpreted as representing antagonistic or synergistic drug interaction respectively.

The subject of test [3] is HUNS-1 cells. The test is described as above. The class given is cell-based. Particulars: HuNS1; HUNS-1, MTS; read-out: IC50 (Molar). The protocol:
as §1, §2, §3, §4, §5, §6

For test [4], the system named is K562 cells. The test is described as above. In kind it is cell-based. The note with it: Homo sapiens, read-out: IC50 (Molar). The protocol: as §1, §2, §3, §4, §5, §6
The test system of test [5] is MC116 cells. Described as above. In kind it is cell-based. The note with it: Homo sapiens, read-out: IC50 (Molar). The protocol: as §1, §2, §3, §4, §5, §6
Test [6] has as its system MOLT-3 cells. Described as above. The class given is cell-based. Particulars: Homo sapiens; MOLT-3, MTS; read-out: IC50 (Molar). The procedure:
as §1, §2, §3, §4, §5, §6

The subject of test [7] is NCI-H929 cells. The test is described as above. The class given is cell-based. Particulars: Homo sapiens, read-out: IC50 (Molar). The procedure:
as §1, §2, §3, §4, §5, §6

For test [8], the system named is RAMOS cells. The test is described as above. In kind it is cell-based. The note with it: Homo sapiens, read-out: IC50 (Molar). The protocol: as §1, §2, §3, §4, §5, §6
Test [9] deals with RPMI 8226 cells. Described as above. In kind it is cell-based. The note with it: Homo sapiens; RPMI 8226, MTS; read-out: IC50 (Molar). The procedure: as §1, §2, §3, §4, §5, §6
The test system of test [10] is U266B-1 cells. Described as above. The class given is cell-based. The note with it: U266B-1, MTS; read-out: IC50 (Molar). The procedure:
as §1, §2, §3, §4, §5, §6

In test [11] the test system is U937 cells. Described as above. In kind it is cell-based. The note with it: Homo sapiens, U-937, read-out: IC50 (Molar). The protocol: as §1, §2, §3, §4, §5, §6
Test [12] relates to H9 cells. Briefly: MTS assay Example 2, single agents. The class given is cell-based. Particulars: Homo sapiens, read-out: IC50 (Molar). The procedure:
as §1, §2, §3, §4

Test [13] concerns HUT78 cells. In words: MTS assay Example 2, single agents. The class given is cell-based. The note with it: Homo sapiens, read-out: IC50 (Molar). The procedure: as §1, §2, §3, §4
Test [14] relates to K562 cell line. In words: MTS assay with CalcuSyn combination index, leukemia. In kind it is cell-based. The note with it: Homo sapiens, K562, read-out: IC50 (Molar). The protocol:
(§7) These cell lines were cultured in RPMI1640 medium with 10% FBS and 2 mM L-Glutamine. Each cell line was plated in a 96 well plates at 20,000 cell per well.
(§8) Each serial dilution was paired with 4 different concentrations of Idarubicin.
(§9) The plates were incubated for 3 days at 37° C. and 5% CO2. The plates were read using the Promega MTS assay system with MTS being metabolized by living cells turning into formazan which is […] at 490 nm wavelength. This is an indirect measure of cell viability. These were analyzed using the Softmax Pro program which determines cell viability based percent of control wells. This IC50 data was then transferred into the CalcuSyn program for combination index analysis. CalcuSyn compares IC50 the values of the drugs alone with that of the drugs in combination using an algorithm to determine a combination index.

For test [15], the system named is MOLT4 cell line. The description is as above. The class given is cell-based. The note with it: Homo sapiens, MOLT-4, read-out: IC50 (Molar). The protocol:
as §7, §8, §9

In the case of “Rituximab: Rituxan® (Rituximab), standard agent”, in [1], the “% T/C on day 24” value is recorded as 95% and the “% T/C on day 38” value is listed as 102%.

For the compound `COc1cc([C@@H]2c3cc4c(cc3[C@@H](O[C@@H]3O[C@@H]5CO[C@@H](C)O[C@H]5[C@H](O)[C@H]3O)[C@H]3COC(=O)[C@H]23)OCO4)cc(OC)c1O` [VP16, etoposide], the IC50 in test [2] is 2000 nM; in test [3], 3100 nM; in [4], 7600 nM; in test [5], 230 nM; in test [6] it was 24 nM; in test [7], 2400 nM. For the same compound, the concentration for half-maximal inhibition (IC50) was found to be 110 nM in test [8]; 370 nM in test [9]; 5900 nM in test [10]; 440 nM in test [11]; 730 nM in test [12]; 1400 nM in test [13].

Consider `CC(=O)[C@]1(O)Cc2c(O)c3c(c(O)c2[C@@H](O[C@H]2C[C@H](N)[C@H](O)[C@H](C)O2)C1)C(=O)c1ccccc1C3=O` [Idarubicin], for which the results for the IC50 in [14] and in test [15] were 63.3 nM and 0.05 nM, respectively.
